The text below walks through data of paper PMC12916490 (Molecular Psychiatry, 2025).

Broadly, the Emax is the size of the effect at its maximum, as opposed to the concentration needed. By EC50 is commonly meant the midpoint of the concentration-response curve. Lower therefore signals higher potency in that assay. One may read the Ki as a dissociation constant, usually derived from enzyme kinetics or from competition with a known ligand.

One assay relates to Human. More on the design: method as in ref 48 (PiHKAL: A Chemical Love Story). Particulars: ref 48 (PiHKAL: A Chemical Love Story); cited from earlier work.
For the next assay, the target named is h5-HT2A (Homo sapiens, UniProt P28223). The experiment in a line: Arachidonic acid release (Gαi/o,12/13 marker), h5-HT2A. Particulars: for Emax: read-out: Arachidonic acid release Emax h5-HT2A (95% CI). It counts as cell-based. More on the design: expressed in transfected cells; host or cells: HEK 293 cells (membrane preparation). How it is done: Activation of h5-HT2A, h5-HT2B, and h5-HT2C receptors was examined by measuring the accumulation of inositol monophosphate (IP1) as a marker for Gαq-mediated signaling. For h5-HT2A, additional assays measured β-arrestin 2 recruitment and arachidonic acid release, the latter serving as a marker of Gαi/o,12/13 activation. The methodology is described in detail in the Supplementary information.
The IC50 values from the radioligand binding assays were determined by nonlinear regression, using three independent concentration-response curves fitted to a one-site model. The Cheng-Prusoff equation was used to calculate Kᵢ values for the competing ligands. EC50 values were determined by applying nonlinear regression to concentration-response curves. Bias factors (β) were calculated based on the relative intrinsic activity approach. More detailed information can be found in the Supplementary information. Mean values for total number of HTR, change in body temperature from pre to post session (Δ°C), and total distance traveled (cm) for each drug dose were compared (p < 0.05) via Welch’s ANOVA with Dunnett’s T3 post test, comparing all doses to respective vehicle controls (0 mg/kg). Welch’s ANOVA with Dunnett’s T3 post test was also used to compare drug concentrations, but the data were compared to DOM in this case. Dose–response relationships for HTR and locomotor activities were plotted using bell-shaped curve fits, while temperature change data were plotted using four-parameter non-linear regression curve fits. The ascending phase of the HTR curve for each drug was used to determine ED50 potency values from four parameter non-linear regression fits. For combined DOM and DOAM administration, the plasma, brain tissue, and brain dialysate drug concentrations were compared using paired t-tests (p < 0.05). […]
the β-arrestin 2 molecule in the NanoBiT system) were seeded at a density of 50,000 cells per well in poly - D-lysine-coated 96-well plates in medium containing 10% dialyzed FBS. The plate was then incubated at […]
The following day, the cells were washed twice with 150 µL HBSS, and 100 µL HBSS was subsequently added to each well. Thereafter, 25 µL of substrate (1 :20 diluted in buffer) was added, and […]
agonist solutions was added, and the signal was monitored for 2 h. Drug dilutions in HBSS were made from 10 mM stock solutions in DMSO , yielding concentration ranges from 10 µM to 10 pM. All concentrations were run in duplicate and included the appropriate solvent controls. Efficacy was normalized to 5 -HT […]
3.2.3 Arachidonic acid release
Arachidonic acid release was assessed as a marker for Gαi/o,12/13 mediated signaling.
NIH/3T3 cells stably expressing the 5 -HT2A receptor were seeded at a density of 75,000 cells per well in a poly-D-lysine-coated 48-well plate. The following day, the cells were labeled with 300 μL [ 3H]arachidonic […]
Thereafter, the cells were washed 3 times for
(10 mM) of test substances were prepared in DMSO. The final dilution series of test substances dissolved […]
Thereafter, the plate was put on ice, and 400 μL incubation supernatant per well was transferred int o scintillation vials containing scintillation fluid (Ultimagold, Perkin Elmer, Schwerzenbach, Switzerland). The remaining supernatant was removed, and the cells were lysed with 1% sodium dodecyl sulfate lysis buffer. The obtained cell lysate was transferred into scintillation vials containing scintillation fluid. Radioactivity was measured on a liquid scintillation counter (Packard 1900 TR Tri-Carb Liquid Scintillation Counter; Packard Instrument Company). Efficacy was normalized to 5-HT activity.
3.2.4 Calculation of bias factors […]
using 5-HT as the reference agonist.
RApathway = EC50, i = EC50, ref×Emax,i […]

The target of a further assay is h5-HT2B (Homo sapiens, UniProt P41595). The experiment in a line: IP1 formation (Gαq-mediated signaling), h5-HT2B. It counts as cell-based. The note with it: for Emax: read-out: IP1 formation Emax h5-HT2B (95% CI), normalized to maximal effect of 5-HT.
The target in a further assay is T1, h5-HT1A (Homo sapiens, UniProt P08908).
T1 construct: expressed in transfected cells; host or cells: HEK 293 cells (membrane preparation)
T1 sequence (P08908 1-422): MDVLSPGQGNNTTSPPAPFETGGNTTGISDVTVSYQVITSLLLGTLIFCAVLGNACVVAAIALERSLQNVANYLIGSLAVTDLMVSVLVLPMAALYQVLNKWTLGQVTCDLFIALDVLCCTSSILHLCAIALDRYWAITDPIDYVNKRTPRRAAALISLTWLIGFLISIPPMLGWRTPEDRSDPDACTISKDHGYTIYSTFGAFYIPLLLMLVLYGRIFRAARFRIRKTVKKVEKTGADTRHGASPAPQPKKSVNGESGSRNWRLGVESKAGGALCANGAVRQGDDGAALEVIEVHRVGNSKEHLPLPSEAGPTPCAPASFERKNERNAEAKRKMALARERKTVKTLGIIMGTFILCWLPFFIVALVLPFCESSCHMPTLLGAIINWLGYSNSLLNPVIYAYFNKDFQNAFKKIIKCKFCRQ
Kind of assay: Radioligand binding, h5-HT1A receptor ([3H]8-OH-DPAT).

The structures appear in SMILES notation. Where two headings read alike, the source gives them in different places. A value given as a limit tells only on which side of the number the result lay.

h5-HT2A, sequence (P28223 whole entry, looked up): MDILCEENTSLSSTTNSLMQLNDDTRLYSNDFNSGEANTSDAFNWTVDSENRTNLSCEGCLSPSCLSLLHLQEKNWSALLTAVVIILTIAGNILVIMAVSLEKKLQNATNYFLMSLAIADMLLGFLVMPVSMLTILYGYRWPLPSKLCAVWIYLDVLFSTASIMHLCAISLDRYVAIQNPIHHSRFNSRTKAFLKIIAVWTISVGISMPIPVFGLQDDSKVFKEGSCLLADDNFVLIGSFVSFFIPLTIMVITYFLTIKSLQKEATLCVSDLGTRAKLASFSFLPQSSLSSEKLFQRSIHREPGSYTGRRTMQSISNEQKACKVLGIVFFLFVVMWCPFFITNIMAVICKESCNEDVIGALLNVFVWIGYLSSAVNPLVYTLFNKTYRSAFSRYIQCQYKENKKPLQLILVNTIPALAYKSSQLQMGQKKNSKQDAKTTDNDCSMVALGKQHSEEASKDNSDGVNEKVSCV
h5-HT2B, sequence (P41595 whole entry): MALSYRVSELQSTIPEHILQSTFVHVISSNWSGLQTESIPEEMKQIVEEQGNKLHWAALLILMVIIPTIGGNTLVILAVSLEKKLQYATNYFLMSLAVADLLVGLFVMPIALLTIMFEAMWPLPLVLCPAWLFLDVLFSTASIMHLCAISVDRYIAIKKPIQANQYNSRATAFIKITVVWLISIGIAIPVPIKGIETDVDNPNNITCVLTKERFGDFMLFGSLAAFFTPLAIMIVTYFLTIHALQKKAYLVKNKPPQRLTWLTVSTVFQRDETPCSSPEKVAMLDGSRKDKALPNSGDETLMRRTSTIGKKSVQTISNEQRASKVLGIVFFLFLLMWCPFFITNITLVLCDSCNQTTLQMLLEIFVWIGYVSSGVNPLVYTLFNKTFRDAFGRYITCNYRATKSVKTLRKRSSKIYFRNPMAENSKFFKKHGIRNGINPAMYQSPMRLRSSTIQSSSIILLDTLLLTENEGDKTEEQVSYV

As for `COc1ccc(OC)c(CC(C)N)c1.Cl` (stereo not shown) [2,5-DMA, 2,5-Dimethoxyamphetamine hydrochloride], in the assay with Human, the Human dose was 80 to 160 mg. At h5-HT2A, the “Agonist type for Gαi/o,12/13-mediated signaling at the 5-HT2A receptor” value (“Agonist type” below) is listed as “high efficacy partial agonists” and the Emax was 59%. Further, on h5-HT2B, the EC50 is 93300 nM and the Emax turned out to be 94%. Besides, the Ki at h5-HT1A amounted to 6020 nM.

As for `CCCCCc1cc(OC)c(CC(C)N)cc1OC` (stereo not shown) [DOAM, 4-amyl-2,5-dimethoxyamphetamine], the Human dose with Human is reported as over 10 mg. Further, at h5-HT2A, the “Agonist type” value was “high efficacy partial agonists”, the EC50 is 2.4 nM and the Emax was 91%. Moreover, on h5-HT2B, the EC50 worked out at 572 nM and the Emax was 106%. The same compound had an inhibitory constant (Ki) on h5-HT1A of 8420 nM.

Consider `CCCCc1cc(OC)c(CC(C)N)cc1OC` (stereo not shown) [DOBU, 4-butyl-2,5-dimethoxyamphetamine], for which, in the assay with Human, the Human dose result is recorded as “Uncertain”. Further, on h5-HT2A, the “Agonist type” value was “high efficacy partial agonists”; the midpoint of the response, the EC50, lay at 2 nM; the Emax turned out to be 74%. Moreover, on h5-HT2B, the midpoint of the response, the EC50, lay at 570 nM and the Emax worked out at 122%. The same compound came in with a Ki on h5-HT1A of 13500 nM.

For the compound `CCc1cc(OC)c(CC(C)N)cc1OC` (stereo not shown) [DOET, 4-ethyl-2,5-dimethoxyamphetamine], the Human dose with Human is 2.0 to 6.0 mg. In addition, on h5-HT2A, the “Agonist type” value is reported as “high efficacy partial agonists”, the EC50 turned out to be 1.5 nM and the Emax was 88%. Moreover, at h5-HT2B, the EC50 came out at 236 nM and the Emax is 95%. This compound also came in with a Ki at h5-HT1A of 5760 nM.

On to `COc1cc(CC(C)N)c(OC)cc1C` (stereo not shown) [DOM, 4-methyl-2,5-dimethoxyamphetamine], for which the Human dose with Human was 3.0 to 10.0 mg. Besides, at h5-HT2A, the “Agonist type” value is “high efficacy partial agonists”, the EC50 worked out at 3.7 nM and the Emax is 75%. Also, on h5-HT2B, a half-maximal response (EC50) required 688 nM and the Emax was 91%. For the same compound, on h5-HT1A (read-out: Ki h5-HT1A (95% CI), receptor binding, HEK 293 membranes), the inhibition constant Ki is 7240 nM.

On to `CCCc1cc(OC)c(CC(C)N)cc1OC.Cl` (stereo not shown) [DOPR, 4-propyl-2,5-dimethoxyamphetamine hydrochloride], for which the Human dose with Human was 2.5 to 5.0 mg. For the same compound, at h5-HT2A, the EC50 was determined as 0.86 nM and the Emax was determined as 117%. Further, on h5-HT2B, the EC50 was found to be 228 nM and the Emax amounted to 96%. This compound also had a Ki on h5-HT1A of 3950 nM.
